Measurements reported in patent US10139394B2, “Method for controlling cancer metastasis or cancer cell migration by modulating the cellular level of lysyl tRNA synthetase” (Medicinal Bioconvergence Research Center, priority 2008, dated 2018).

Key:
[1] = test system: KRS and EPRS; assay: Co-immunoprecipitation of KRS with EPRS (multi-ARS complex); format: cell-based; settings: A549 cells; absence of LY compound; FIG. 12
Description: In FIG. 7, A549 cells were treated with laminin (10 ug/ml) and the level of 67LR, 37LRP and KRS was determined by Western blotting at the indicated times. Hsp90 and Cadherin were used as markers for cytoplasm and membrane, respectively. In FIG. 8, A549 cells untreated or treated with laminin for 1 h were subjected to immunofluorescence staining with anti-67LR (MLuC5, Santacruz, sc-59732) (red) and -KRS antibodies (green). In FIG. 9, A549 cells were treated with U73122 (U), staurosporin (ST) and LY294002 (LY) that inhibit PLC-gamma, PKC and PI3K, respectively, for 3 hr, then with laminin for 1 hr and checked how these kinase inhibitors would affect the membrane and cytoplasmic level of 67LR and KRS. In FIG. 10, A549 cells were transfected with Myc-KRS and incubated for 24 h. The cells were treated with the indicated chemicals and then with laminin as above. Myc-KRS was immunoprecipitated, and immunoblotted with anti-p-Thr, -Ser, and -Tyr antibodies. In FIG. 11, A549 cells were transfected with Myc-KRS and cultivated for 24 hr. The transfectants were pre-treated with LY294002 for 3 hr and then treated with laminin for 1 h. Myc-KRS was immunoprecipitated and co-precipitation of 67LR was determined by Western blotting. […] EPRS (glutamyl-prolyl-tRNA synthetase) was immunoprecipitated with its specific antibody (AbCam), and co-immunoprecipitation of KRS was determined by Western blotting (upper). […]

[2] = test system: A549 cells; assay: Cell migration assay in Transwell chamber; format: cell-based; settings: laminin 10 μg/ml in lower well, 6 hr, in average, FIG. 24 and 18
Description: In FIG. 18, A549 cells were transfected with the indicated plasmids, incubated in the absence and presence of laminin and their effect on cell migration was determined by measuring the migrated cells in transwell chamber as described. The numbers of the cells passed through the membrane were counted and shown in each panel. The experiments were performed three times. In FIG. 19, the cells treated as above were used to determine MMP-2 activity and level by zymography and Western blotting, respectively. In FIG. 20, Breast carcinoma 4T-1 cells were transfected with the indicated siRNA and subcutaneously injected to the back of Balb/C mice. After 21 days, mouse lungs were isolated and tumor nodules over 1 mm in diameter were counted. In FIG. 21, two different 4T-1 cells stably expressing exogenously introduced KRS (KRS-1 and -2) were also inoculated as above and the tumor nodules were counted 30 days after injection. […]
FIGS. 24 to 27 show effect of intracellular and extracellular KRS on cell migration, protein synthesis and cell cycle. In FIG. 24, Migration of A549 cells incubated in the absence of laminin was determined was determined by measuring the migrated cells in Transwell chamber. […] After 6 hr of incubation, the migrant were counted. […] In FIG. 27, A549 cells transfected as indicated were fixed and stained with propidium iodide, and their cell cycle was determined by flow cytometry. […]

## laminin: laminin (Engelbreth-Holm-Swarm murine sarcoma) from Sigma
[1]
  association of KRS with EPRS: decreased
[2]
  Migration of the control cells, enhancement: about 6 fold
